Reference: patent US7507741B2, “Heterocyclic compounds” (SmithKline Beecham Corporation, priority 1999, dated 2009)

Legend:
c-erbB-4 = biological target: T1, c-erbB-4 (Homo sapiens, UniProt Q15303); assay: Substrate phosphorylation assay, c-erbB-4; type: biochemical; conditions: recombinant intracellular domain, baculovirus expressed; ATP and peptide at Km; read-out: ErbB4 IC50
T1 construct: baculovirus expressed, recombinant constructs of the intracellular domains of c-erbB-2 and c-erbB-4; made in house
T1 sequence (Q15303 676-1308 limits assumed): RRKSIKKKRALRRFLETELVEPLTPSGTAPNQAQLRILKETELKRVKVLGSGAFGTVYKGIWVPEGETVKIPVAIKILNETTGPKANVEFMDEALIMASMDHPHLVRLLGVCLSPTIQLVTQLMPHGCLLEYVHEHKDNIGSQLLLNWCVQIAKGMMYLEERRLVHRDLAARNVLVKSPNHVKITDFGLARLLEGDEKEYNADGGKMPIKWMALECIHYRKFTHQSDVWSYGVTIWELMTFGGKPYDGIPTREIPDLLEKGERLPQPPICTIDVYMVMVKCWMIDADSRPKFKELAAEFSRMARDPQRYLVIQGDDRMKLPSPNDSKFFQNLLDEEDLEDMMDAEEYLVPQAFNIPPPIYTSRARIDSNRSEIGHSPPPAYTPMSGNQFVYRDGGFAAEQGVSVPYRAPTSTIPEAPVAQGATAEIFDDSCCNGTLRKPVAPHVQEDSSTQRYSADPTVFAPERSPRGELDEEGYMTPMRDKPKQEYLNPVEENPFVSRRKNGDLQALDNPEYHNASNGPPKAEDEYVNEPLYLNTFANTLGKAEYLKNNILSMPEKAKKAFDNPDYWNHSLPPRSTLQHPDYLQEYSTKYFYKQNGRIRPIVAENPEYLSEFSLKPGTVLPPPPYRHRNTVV
Experimental: The substrate phosphorylation assays use baculovirus expressed, recombinant constructs of the intracellular domains of c-erbB-2 and c-erbB-4 that are constitutively active and EGFr isolated from solubilised A431 cell membranes. The method measures the ability of the isolated enzymes to catalyse the transfer of the γ-phosphate from ATP onto tyrosine residues in a biotinylated synthetic peptide (Biotin-[…]. […] The reaction is stopped by the addition of EDTA (final concentration 0.15 mM) and a sample is transferred to a streptavidin-coated 96-well plate. The plate is washed and level of phosphotyrosine on the peptide is determined using a Europium-labelled antiphosphotyrosine antibody and quantified with a time-resolved fluorescence technique. The results are shown in Table 1 as the IC50 value in Micromolar ranges.

c-erbB-2 = biological target: T2, c-erbB-2 (Homo sapiens, UniProt P04626); assay: Substrate phosphorylation assay, c-erbB-2; type: biochemical; conditions: recombinant intracellular domain, baculovirus expressed; ATP and peptide at Km; read-out: ErbB2 IC50
T2 construct: baculovirus expressed, recombinant constructs of the intracellular domains of c-erbB-2 and c-erbB-4; made in house
T2 sequence (P04626 676-1255 limits assumed): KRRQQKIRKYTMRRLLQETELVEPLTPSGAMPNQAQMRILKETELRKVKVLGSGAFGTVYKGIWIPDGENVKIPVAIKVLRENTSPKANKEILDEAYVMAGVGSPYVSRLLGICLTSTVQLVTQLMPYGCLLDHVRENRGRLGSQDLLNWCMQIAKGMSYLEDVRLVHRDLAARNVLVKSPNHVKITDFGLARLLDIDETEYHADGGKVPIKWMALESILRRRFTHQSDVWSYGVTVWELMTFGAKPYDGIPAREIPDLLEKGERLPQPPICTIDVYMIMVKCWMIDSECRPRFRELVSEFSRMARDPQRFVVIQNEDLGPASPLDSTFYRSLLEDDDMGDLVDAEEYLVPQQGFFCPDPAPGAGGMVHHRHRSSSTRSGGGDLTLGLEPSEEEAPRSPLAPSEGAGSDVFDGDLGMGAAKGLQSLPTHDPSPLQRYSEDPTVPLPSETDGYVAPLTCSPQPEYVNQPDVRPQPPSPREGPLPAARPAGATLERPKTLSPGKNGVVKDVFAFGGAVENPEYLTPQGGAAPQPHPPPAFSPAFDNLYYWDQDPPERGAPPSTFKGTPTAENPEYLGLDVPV
Experimental: (§1) The substrate phosphorylation assays use baculovirus expressed, recombinant constructs of the intracellular domains of c-erbB-2 and c-erbB-4 that are constitutively active and EGFr isolated from solubilised A431 cell membranes. […] The reaction is stopped by the addition of EDTA (final concentration 0.15 mM) and a sample is transferred to a streptavidin-coated 96-well plate. The plate is washed and level of phosphotyrosine on the peptide is determined using a Europium-labelled antiphosphotyrosine antibody and quantified with a time-resolved fluorescence technique. The results are shown in Table 1 as the IC50 value in Micromolar ranges.

BT474 cells = assay: Methylene blue growth inhibition assay, BT474; type: cell-based; conditions: BT-474, 72 h; human breast tumor cell line, 3 days
Experimental: (§2) Human breast (BT474), head and neck (HN5) and gastric tumor (N87) cell lines were cultured in low glucose DMEM (Life Technologies 12320-032) containing 10% fetal bovine serum (FBS) at 37° C. in a humidified 10% CO2, 90% air incubator. The SV40 transformed human mammary epithelial cell line HB4a was transfected with either human H-ras cDNA (HB4a r4.2) or the human c-erbB2 cDNA (HB4a c5.2). The HB4a clones were cultured in RPMI containing 10% FBS, insulin (5 μg/ml), hydrocortisone (5 μg/ml), supplemented with the selection agent hygromycin B (50 μg/ml). Cells were harvested using trypsin/EDTA, counted using a haemocytometer, and plated in […] of the appropriate media, at the following densities, in a 96-well tissue culture plate (Falcon 3075): BT474 10,000 cells/well, HN5 3,000 cells/well, N87 10,000 cells/well, HB4a c5.2 3,000 cells/well, HB4a r4.2 3,000 cells/well. The next day, compounds were diluted in DMEM containing […] gentamicin, at twice the final required concentration, from 10 mM stock solutions in DMSO. […] of these dilutions were added to the […] of media currently on the cell plates. Medium containing 0.6% DMSO was added to control wells. Compounds diluted in DMEM were added to all cell lines, including the HB4a r4.2 and HB4a c5.2 cell lines. The final concentration of DMSO in all wells was 0.3%. Cells were incubated at 37° C., 10% CO2 for 3 days. Medium was removed by aspiration. Cell biomass was estimated by staining cells with 100 μl per well methylene blue (Sigma M9140, 0.5% in 50:50 ethanol:water), and incubation at room temperature for at least 30 minutes. Stain was removed, and the plates rinsed under a gentle stream of water, and air-dried. To release stain from the cells 100 μl of solubilization solution was added (1% N-lauroyl sarcosine, Sodium salt, Sigma L5125, in PBS), and plates were shaken gently for about 30 minutes. Optical density at 620 nm was measured on a microplate reader. Percent inhibition of cell growth was calculated relative to vehicle treated control wells. Concentration of compound that inhibits 50% of cell growth (IC50) was interpolated using nonlinear regression (Levenberg-Marquardt) and the equation, y=Vmax*(1−(x/(K+x)))+Y2, where “K” was equal to the IC50.

N87 cells = assay: Methylene blue growth inhibition assay, N87; type: cell-based; conditions: 72 h; human gastric tumor cell line, 3 days
Experimental: as §2

HB4a c5.2 cells = assay: Methylene blue growth inhibition assay, HB4a c5.2; type: cell-based; conditions: HB4a-C5.2, 72 h; human mammary epithelial line transfected with human c-erbB2 cDNA, 3 days; read-out: HB4a c5.2 IC50 (cell growth)
Experimental: as §2

[1] = biological target: T3, EGFr isolated from solubilised A431 cell membranes (Homo sapiens, UniProt P00533); assay: Substrate phosphorylation assay, EGFr; type: biochemical; conditions: ATP and peptide at Km
T3 construct: EGFr isolated from solubilised A431 cell membranes; endogenous in cells; host or cells: A431 cell membranes, solubilised
T3 sequence (P00533 25-1210): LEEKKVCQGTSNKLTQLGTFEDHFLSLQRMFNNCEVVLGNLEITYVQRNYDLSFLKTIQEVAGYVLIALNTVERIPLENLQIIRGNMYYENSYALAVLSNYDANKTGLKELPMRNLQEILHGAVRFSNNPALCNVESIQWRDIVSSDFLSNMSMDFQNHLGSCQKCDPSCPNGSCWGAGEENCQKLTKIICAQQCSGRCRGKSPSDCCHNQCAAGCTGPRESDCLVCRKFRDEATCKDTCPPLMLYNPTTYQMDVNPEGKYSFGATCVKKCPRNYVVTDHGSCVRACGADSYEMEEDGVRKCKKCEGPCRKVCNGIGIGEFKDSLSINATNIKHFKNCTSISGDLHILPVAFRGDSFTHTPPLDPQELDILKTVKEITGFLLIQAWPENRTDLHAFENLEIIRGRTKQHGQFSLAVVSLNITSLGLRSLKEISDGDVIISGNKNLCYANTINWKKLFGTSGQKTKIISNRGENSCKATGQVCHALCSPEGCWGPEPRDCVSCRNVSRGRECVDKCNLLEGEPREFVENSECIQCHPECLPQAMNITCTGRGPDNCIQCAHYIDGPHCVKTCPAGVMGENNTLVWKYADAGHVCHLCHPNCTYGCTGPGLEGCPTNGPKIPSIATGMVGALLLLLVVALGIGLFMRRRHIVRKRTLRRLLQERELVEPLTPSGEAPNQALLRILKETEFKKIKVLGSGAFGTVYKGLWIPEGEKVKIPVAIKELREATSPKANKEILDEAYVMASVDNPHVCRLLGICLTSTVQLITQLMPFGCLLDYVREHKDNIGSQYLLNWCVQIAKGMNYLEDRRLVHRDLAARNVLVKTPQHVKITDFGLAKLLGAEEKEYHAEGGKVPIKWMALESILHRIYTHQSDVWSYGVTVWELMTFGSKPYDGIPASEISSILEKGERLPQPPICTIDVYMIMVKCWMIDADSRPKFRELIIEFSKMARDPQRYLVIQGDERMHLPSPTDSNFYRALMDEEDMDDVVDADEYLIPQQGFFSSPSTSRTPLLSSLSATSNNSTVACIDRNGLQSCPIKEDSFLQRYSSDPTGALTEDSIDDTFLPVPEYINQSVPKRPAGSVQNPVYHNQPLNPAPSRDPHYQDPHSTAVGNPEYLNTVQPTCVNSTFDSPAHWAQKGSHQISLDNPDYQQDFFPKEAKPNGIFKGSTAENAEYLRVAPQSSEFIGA
Experimental: as §1, with “technique.” for “technique. The results are shown in Table 1 as the IC50 value in Micromolar ranges.”

HN5 cells = assay: Methylene blue growth inhibition assay, HN5; type: cell-based; conditions: HN5, 72 h; human head and neck tumor cell line, 3 days
Experimental: as §2

CC(C)S(=O)(=O)CCNCc1ccc(-c2ccc3ncnc(Nc4ccc(OCc5cccc(F)c5)c(Cl)c4)c3c2)o1 [Example 19]
IC50 (c-erbB-4): 100 to 1000 nM | IC50 (c-erbB-2): < 100 nM | IC50 (BT474 cells): 100 to 1000 nM | IC50 (N87 cells): 100 to 1000 nM | IC50 (HB4a c5.2 cells): 100 to 1000 nM

CCCN(CCS(C)(=O)=O)Cc1ccc(-c2ccc3ncnc(Nc4ccc(OCc5cccc(F)c5)c(Cl)c4)c3c2)o1 [Example 18, N-{3-chloro-4-[(3-fluorobenzyl)oxy]phenyl}-6-(5-{[[2-(methylsulfonyl)ethyl](propyl)amino]methyl}-2-furyl)-4-quinazolinamine]
IC50 (c-erbB-4): < 100 nM | IC50 (c-erbB-2): < 100 nM | IC50 [1]: < 100 nM | IC50 (BT474 cells): 100 to 1000 nM | IC50 (N87 cells): 100 to 1000 nM | IC50 (HN5 cells): 100 to 1000 nM | IC50 (HB4a c5.2 cells): 100 to 1000 nM

CS(=O)(=O)CCN(Cc1ccccc1)Cc1ccc(-c2ccc3ncnc(Nc4ccc(OCc5cccc(F)c5)c(Cl)c4)c3c2)o1 [Example 16, 6-[5-({benzyl[2-(methylsulfonyl)ethyl]amino}methyl)-2-furyl]-N-{3-chloro-4-[(3-fluorobenzyl)oxy]phenyl}-4-quinazolinamine]
IC50 (c-erbB-4): 100 to 1000 nM | IC50 (c-erbB-2): 100 to 1000 nM | IC50 (BT474 cells): 100 to 1000 nM | IC50 (N87 cells): 100 to 1000 nM | IC50 (HN5 cells): 1000 to 10000 nM | IC50 (HB4a c5.2 cells): 1000 to 10000 nM

C=CS(=O)(=O)CCOCc1ccc(-c2ccc3ncnc(Nc4ccc(OCc5cccc(F)c5)c(Cl)c4)c3c2)o1 [Example 14, N-{3-chloro-4-[(3-fluorobenzyl)oxy]phenyl}-6-(5-{[2-(vinylsulfonyl)ethoxy]methyl}-2-furyl)-4-quinazolinamine]
IC50 (c-erbB-4): 100 to 1000 nM | IC50 (c-erbB-2): < 100 nM | IC50 [1]: < 100 nM | IC50 (BT474 cells): 1000 to 10000 nM | IC50 (N87 cells): 1000 to 10000 nM | IC50 (HN5 cells): 1000 to 10000 nM | IC50 (HB4a c5.2 cells): 1000 to 10000 nM

CS(=O)(=O)CCN(CC#N)Cc1ccc(-c2ccc3ncnc(Nc4ccc(OCc5cccc(F)c5)c(Cl)c4)c3c2)o1 [Example 15, 2-{{[5-(4-{3-chloro-4-[(3-fluorobenzyl)oxy]anilino}-6-quinazolinyl)-2-furyl]methyl}[2-(methylsulfonyl)ethyl]amino}acetonitrile]
IC50 (c-erbB-4): 100 to 1000 nM | IC50 (c-erbB-2): < 100 nM | IC50 [1]: < 100 nM | IC50 (BT474 cells): < 100 nM | IC50 (N87 cells): 100 to 1000 nM | IC50 (HN5 cells): < 100 nM | IC50 (HB4a c5.2 cells): 100 to 1000 nM

O=S(=O)(CCOCc1ccc(-c2ccc3ncnc(Nc4ccc(OCc5cccc(F)c5)c(Cl)c4)c3c2)o1)c1ccccc1 [Example 3, N-{3-chloro-4-[(3-fluorobenzyl)oxy]phenyl}-6-(5-{[2-(phenylsulfonyl)ethoxy]methyl}-2-furyl)-4-quinazolinamine]
IC50 (c-erbB-4): 1000 to 10000 nM | IC50 (c-erbB-2): < 100 nM | IC50 [1]: < 100 nM | IC50 (BT474 cells): 100 to 1000 nM | IC50 (N87 cells): 100 to 1000 nM | IC50 (HN5 cells): 100 to 1000 nM | IC50 (HB4a c5.2 cells): 100 to 1000 nM

CCCS(=O)(=O)CCNCc1ccc(-c2ccc3ncnc(Nc4ccc(OCc5cccc(F)c5)c(Cl)c4)c3c2)o1 [Example 7]
IC50 (c-erbB-4): 100 to 1000 nM | IC50 (c-erbB-2): < 100 nM | IC50 [1]: < 100 nM | IC50 (BT474 cells): 1000 to 10000 nM | IC50 (N87 cells): 1000 to 10000 nM | IC50 (HN5 cells): 1000 to 10000 nM | IC50 (HB4a c5.2 cells): 1000 to 10000 nM

CCCS(=O)(=O)CCNCc1ccc(-c2cc3c(Nc4ccc(OCc5cccc(F)c5)cc4)ncnc3cn2)o1 [Example 6]
IC50 (c-erbB-4): 1000 to 10000 nM | IC50 (c-erbB-2): < 100 nM | IC50 [1]: < 100 nM | IC50 (BT474 cells): 100 to 1000 nM | IC50 (N87 cells): 100 to 1000 nM | IC50 (HN5 cells): 100 to 1000 nM | IC50 (HB4a c5.2 cells): 100 to 1000 nM

CS(=O)(=O)CCOCc1ccc(-c2ccc3ncnc(Nc4ccc(OCc5cccc(F)c5)c(Cl)c4)c3c2)o1 [Example 13, N-{3-chloro-4-[(3-fluorobenzyl)oxy]phenyl}-6-(5-{[2-(methylsulfonyl)ethoxy]methyl}-2-furyl)-4-quinazolinamine]
IC50 (c-erbB-4): 100 to 1000 nM | IC50 (c-erbB-2): < 100 nM | IC50 [1]: < 100 nM | IC50 (BT474 cells): 100 to 1000 nM | IC50 (N87 cells): 100 to 1000 nM | IC50 (HN5 cells): 100 to 1000 nM | IC50 (HB4a c5.2 cells): 100 to 1000 nM

Cn1ccnc1S(=O)(=O)CCNCc1ccc(-c2ccc3ncnc(Nc4ccc(OCc5cccc(F)c5)c(Cl)c4)c3c2)o1 [Example 2, (4-(3-Fluorobenzyloxy)-3-chlorophenyl)-(6-(2-((2-(2-N-methylimidazolyl)-sulphonyl-ethylamino)-methyl)-furan-2-yl)-quinazolin-4-yl)-amine]
IC50 (c-erbB-4): 100 to 1000 nM | IC50 (c-erbB-2): < 100 nM | IC50 [1]: < 100 nM | IC50 (BT474 cells): 100 to 1000 nM | IC50 (N87 cells): 100 to 1000 nM | IC50 (HN5 cells): 100 to 1000 nM | IC50 (HB4a c5.2 cells): 100 to 1000 nM

CCN(CCS(C)(=O)=O)Cc1ccc(-c2ccc3ncnc(Nc4ccc(OCc5cccc(F)c5)c(Cl)c4)c3c2)o1 [Example 17, N-{3-chloro-4-[(3-fluorobenzyl)oxy]phenyl}-6-[5-({ethyl[2-(methylsulfonyl)ethyl]amino}methyl)-2-furyl]-4-quinazolinamine]
IC50 (c-erbB-4): 100 to 1000 nM | IC50 (c-erbB-2): < 100 nM | IC50 [1]: < 100 nM | IC50 (BT474 cells): 100 to 1000 nM | IC50 (N87 cells): 100 to 1000 nM | IC50 (HN5 cells): 100 to 1000 nM | IC50 (HB4a c5.2 cells): 100 to 1000 nM

O=S(=O)(CCNCc1ccc(-c2ccc3ncnc(Nc4ccc(OCc5cccc(F)c5)c(Cl)c4)c3c2)o1)c1ccccn1 [Example 5]
IC50 (c-erbB-4): 1000 to 10000 nM | IC50 (c-erbB-2): < 100 nM | IC50 [1]: < 100 nM | IC50 (BT474 cells): 1000 to 10000 nM | IC50 (N87 cells): 100 to 1000 nM | IC50 (HN5 cells): 100 to 1000 nM | IC50 (HB4a c5.2 cells): 1000 to 10000 nM

CS(=O)(=O)CCNCCCc1ccc(-c2ccc3ncnc(Nc4ccc(OCc5ccccc5)c(Cl)c4)c3c2)o1 [Example 8]
IC50 (c-erbB-4): 1000 to 10000 nM | IC50 (c-erbB-2): < 100 nM | IC50 [1]: < 100 nM | IC50 (BT474 cells): 100 to 1000 nM | IC50 (N87 cells): 100 to 1000 nM | IC50 (HN5 cells): 100 to 1000 nM | IC50 (HB4a c5.2 cells): 100 to 1000 nM
